Data: publication PMC9116245, “New 1,2,3-triazole linked ciprofloxacin-chalcones induce DNA damage by inhibiting human topoisomerase I& II and tubulin polymerization” (Journal of Enzyme Inhibition and Medicinal Chemistry, 2022)

Assays:
HCT116 cells = assay: Analysis of cell cycle distribution; format: cell-based, human; settings: HCT116, different concentrations, 24 h
Description: Generally, the mammalian cells counteract the DNA damage by different mechanisms including the cell cycle arrest to allow the cell to repair the damage. There are 2 checkpoints that control DNA damage. The first checkpoint is at the G1/S transition while the other checkpoint is at the G2/M transition. To cover the mechanisms of the synthesised compounds in inhibiting cell proliferation, we analysed the distribution of cell cycle of HCT116 cells following the treatment with different doses of 4a, 4b, 4e, 4i, and 4j. […] See Supplementary Appendix A.

ATR/CHK1/Cdc25C pathway = assay: Western blot of ATR-Chk1-Cdc25C cascade in HCT116 cells; format: cell-based, human
Description: To clarify the molecular mechanism responsible for inducing G2/M phase arrest in HCT116 following the treatment with the synthesised compounds, the signalling in the checkpoint pathway that regulates the G2/M transition was investigated. The mammalian cells respond to the DNA damage through 2 different kinase-signalling cascades (ATR-Chk1 and ATM-Chk2). First, the effect of the synthesised compounds on ATM and ATR phosphorylation was tested. […] Then, the phosphorylation of downstream effectors of ATM/ATR, phospho-Chk1-S269, and phospho-Chk2-T68 kinases was explored. […] It is well known that in vitro activation of Chk1 phosphorylates Cdc25C on serine-216. Therefore, the impact of the synthesised compounds on the Cdc25C phosphorylation at Ser-216 was investigated.
(§1) Western blotting analysis for HCT116 cells was performed according to the reported procedure in the literature[77–79] to determine the effects of CP hybrids; 4a, 4b, 4e, 4i, and 4j on the expression of polymerised tubulin, γH2AX, p-ATR, p-CHK1, and p-Cdc25C by using the appropriate antibody. See Supplementary Appendix A.

tubulin polymerisation = assay: Tubulin immunofluorescence microscopy in HCT116 cells; format: cell-based, human; settings: HCT116, IC50 of compound, 36 h
Description: The process of tubulin polymerisation in the cells is important for the completion of mitosis and is targeted for cancer treatment. It has been reported that the suppression of tubulin polymerisation will arrest the cells at the G2/M and it eventually leads to cell death. To test the tubulin-disruptive effect of the CP hybrids, HCT116 cells were analysed by immunocytochemistry. HCT116 cells were incubated for 36 h with IC50 of the CP hybrids (4a, 4b, 4e, 4i, and 4j), nocodazole (a well-known tubulin polymerisation inhibitor, as a positive control), DMSO or Paclitaxel (a well-known tubulin polymerisation inducer, as a negative control), and tubulin was visualised by immunofluorescence microscopy. An antibody for α-tubulin was used. […] Moreover, a Western blot was performed to verify the tubulin polymerisation inhibition ability of the synthesised compounds (Figure 8(B)). The level of polymerised tubulin was decreased in HCT116 cells treated with IC50 values of CP hybrids 4a, 4b, 4e, 4i, 4j, or nocodazole.
(§2) HCT116 cells were cultured and treated with the IC50 of the potent compounds (4a, 4b, 4e, 4i, and 4j) or DMSO (control), fixed, permeabilized, and they were incubated with either γH2AX or α-tubulin antibody as the reported procedure in the literature. Confocal images were captured using a Confocal Microscope with a 63X objective. All images were processed using ImageJ software. See Supplementary Appendix A.

γH2AX [1] = assay: γH2AX western blotting in HCT116 cells; format: cell-based, human; settings: HCT116, IC50 of compound, versus control cells
Description: (§3) DNA damage is a major reason for inhibiting proliferation and inducing cytotoxicity in cancer cells as well as the main downstream cascade for the Topo-I, Top-II, and tubulin polymerisation inhibition. The phosphorylation of the histone H2AX always occurs after DNA damage forming double-stranded breaks (DSBs). Therefore, we tested the capability of the potent prepared compounds to trigger DNA double strand breaks through detection of the phosphorylation of γH2AX using two different techniques, Immunofluorescence, and western blotting.
as §1

γH2AX [2] = assay: γH2AX immunofluorescence in HCT116 cells; format: cell-based, human; settings: HCT116, IC50 of compound
Description: as §3, §2

Topo IIα = biological target: T1, Topo IIα (Homo sapiens, UniProt P11388); assay: Human Topoisomerase II assay kit (TG1001); format: biochemical; settings: 10 µM
T1 construct: purchased Topogen Inc. TG1001
Description: Second, the inhibitory activity of Topo IIα was evaluated for compounds 4a, 4b, 4e, 4i, and 4j utilising Human Topoisomerase II assay kit (TG1001, Topogen Inc.). […] The above results are compatible with our design of these hybrids as Top-II inhibitors.
The inhibitory activity of the selected ciprofloxacin hybrids on human Top-II was tested using a Human Topoisomerase II assay kit (TG1001, Topogen Inc.). In this assay, 1% agarose gel was used, and the compounds were tested at two different concentrations, 10 and 100 µM. Also, etoposide was used as a positive control in this experiment. The assay was performed according to the manufacturer’s protocol. The image of the electrophoretic gel was captured using an imaging system (iBright-CL1500, Thermo Fisher Scientific).

[3] = biological target: T2, recombinant human DNA topoisomerase I (Homo sapiens, UniProt P11387); assay: Human DNA Topoisomerase I Assay Kit (ProFoldin); format: biochemical; settings: compounds at their IC50 values, reference camptothecin
T2 construct: purchased Sigma-Aldrich
T2 sequence (P11387 1-765): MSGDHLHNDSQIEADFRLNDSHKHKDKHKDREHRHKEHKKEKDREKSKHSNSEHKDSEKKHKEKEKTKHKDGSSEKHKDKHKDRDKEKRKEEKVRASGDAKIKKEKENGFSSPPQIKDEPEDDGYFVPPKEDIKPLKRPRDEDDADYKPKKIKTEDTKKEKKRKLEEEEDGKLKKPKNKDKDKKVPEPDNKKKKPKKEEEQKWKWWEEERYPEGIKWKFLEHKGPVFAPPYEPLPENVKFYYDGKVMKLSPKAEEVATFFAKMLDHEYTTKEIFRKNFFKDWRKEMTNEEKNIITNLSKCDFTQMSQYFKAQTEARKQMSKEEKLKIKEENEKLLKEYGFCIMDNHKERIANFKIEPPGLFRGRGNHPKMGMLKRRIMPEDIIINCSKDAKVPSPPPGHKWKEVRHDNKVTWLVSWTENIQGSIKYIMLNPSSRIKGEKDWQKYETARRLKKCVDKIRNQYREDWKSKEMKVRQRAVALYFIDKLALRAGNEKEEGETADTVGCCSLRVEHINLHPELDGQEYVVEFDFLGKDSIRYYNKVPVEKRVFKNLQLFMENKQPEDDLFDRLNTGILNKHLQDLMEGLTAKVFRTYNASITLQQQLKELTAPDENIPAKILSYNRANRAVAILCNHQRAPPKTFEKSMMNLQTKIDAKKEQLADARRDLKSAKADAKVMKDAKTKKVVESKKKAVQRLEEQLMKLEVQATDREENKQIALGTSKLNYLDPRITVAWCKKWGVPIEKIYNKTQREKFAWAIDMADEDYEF

T1 sequence (P11388 whole entry): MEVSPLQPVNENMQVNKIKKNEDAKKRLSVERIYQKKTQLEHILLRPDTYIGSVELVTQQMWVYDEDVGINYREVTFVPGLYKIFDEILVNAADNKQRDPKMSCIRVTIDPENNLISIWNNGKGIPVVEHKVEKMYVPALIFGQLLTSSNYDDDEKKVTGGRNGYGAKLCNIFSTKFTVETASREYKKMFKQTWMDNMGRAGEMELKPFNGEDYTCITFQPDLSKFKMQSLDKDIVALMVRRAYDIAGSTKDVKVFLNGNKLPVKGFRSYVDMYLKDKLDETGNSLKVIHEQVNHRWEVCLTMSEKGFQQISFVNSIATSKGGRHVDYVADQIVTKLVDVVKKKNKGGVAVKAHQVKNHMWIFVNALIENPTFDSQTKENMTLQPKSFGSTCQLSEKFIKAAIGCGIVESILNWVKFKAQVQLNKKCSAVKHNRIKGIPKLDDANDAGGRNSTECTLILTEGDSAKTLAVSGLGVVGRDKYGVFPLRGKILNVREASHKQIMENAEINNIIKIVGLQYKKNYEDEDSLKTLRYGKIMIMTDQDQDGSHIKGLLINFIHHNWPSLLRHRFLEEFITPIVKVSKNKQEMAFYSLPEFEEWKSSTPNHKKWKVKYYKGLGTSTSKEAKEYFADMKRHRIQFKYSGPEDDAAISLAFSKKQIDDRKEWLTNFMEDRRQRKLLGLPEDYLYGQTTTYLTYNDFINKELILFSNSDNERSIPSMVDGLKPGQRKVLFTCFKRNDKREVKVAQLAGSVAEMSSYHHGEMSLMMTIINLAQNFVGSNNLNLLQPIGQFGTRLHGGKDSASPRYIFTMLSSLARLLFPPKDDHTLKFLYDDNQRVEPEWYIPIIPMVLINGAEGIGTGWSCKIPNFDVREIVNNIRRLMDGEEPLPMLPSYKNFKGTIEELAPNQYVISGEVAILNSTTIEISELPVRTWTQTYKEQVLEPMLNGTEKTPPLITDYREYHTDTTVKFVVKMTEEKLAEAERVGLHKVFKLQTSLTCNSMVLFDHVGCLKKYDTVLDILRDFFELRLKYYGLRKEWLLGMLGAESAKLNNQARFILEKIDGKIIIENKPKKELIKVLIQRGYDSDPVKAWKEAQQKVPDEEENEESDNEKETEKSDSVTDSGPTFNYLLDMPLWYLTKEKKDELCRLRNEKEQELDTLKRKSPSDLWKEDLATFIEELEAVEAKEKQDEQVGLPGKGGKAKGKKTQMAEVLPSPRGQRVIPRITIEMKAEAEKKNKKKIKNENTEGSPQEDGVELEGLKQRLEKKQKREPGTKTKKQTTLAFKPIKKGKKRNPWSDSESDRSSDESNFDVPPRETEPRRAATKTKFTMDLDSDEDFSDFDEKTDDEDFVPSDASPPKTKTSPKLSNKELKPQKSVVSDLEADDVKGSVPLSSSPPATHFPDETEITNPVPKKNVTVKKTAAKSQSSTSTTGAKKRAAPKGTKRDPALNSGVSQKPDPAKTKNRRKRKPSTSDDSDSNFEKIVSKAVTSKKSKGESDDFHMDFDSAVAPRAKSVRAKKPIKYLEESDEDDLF

Row | Structure (SMILES) | melting point | cell cycle distribution (HCT116 cells) | expressions of p-ATR, p-CHK1, and p-Cdc25C, Western blot (ATR/CHK1/Cdc25C pathway) | tubulin polymerisation, morphological changes by immunofluorescence (tubulin polymerisation) | γH2AX protein expression, western blotting (γH2AX [1]) | γH2AX foci formation (γH2AX [2]) | Topo-II inhibitory activity (Topo IIα) | Top-I inhibitory activity, enzyme assay kit [3]
1 | O=C(/C=C/c1ccc(Br)cc1)c1ccc(-n2cc(CN3CCN(c4cc5c(cc4F)c(=O)c(C(=O)O)cn5C4CC4)CC3)nn2)cc1 [Compound 4d, (E)-7-(4-((1-(4-(3-(4-bromophenyl)acryloyl)phenyl)-1H-1,2,3-triazol-4-yl)methyl)piperazin-1-yl)-1-cyclopropyl-6-fluoro-4-oxo-1,4-dihydroquinoline-3-carboxylic acid] | 247 to 249 °C | – | – | – | – | – | – | –
2 | Cc1ccc(/C=C/C(=O)c2ccc(-n3cc(CN4CCN(c5cc6c(cc5F)c(=O)c(C(=O)O)cn6C5CC5)CC4)nn3)cc2)cc1 [Compound 4f, (E)-1-cyclopropyl-6-fluoro-4-oxo-7-(4-((1-(4-(3-(p-tolyl)acryloyl)phenyl)-1H-1,2,3-triazol-4-yl)methyl)piperazin-1-yl)-1,4-dihydroquinoline-3-carboxylic acid] | 259 to 261 °C | – | – | – | – | – | – | –
3 | CN(C)c1ccc(/C=C/C(=O)c2ccc(-n3cc(CN4CCN(c5cc6c(cc5F)c(=O)c(C(=O)O)cn6C5CC5)CC4)nn3)cc2)cc1 [Compound 4h, (E)-1-cyclopropyl-7–(4-((1–(4-(3-(4-(dimethylamino)phenyl)acryloyl)phenyl)-1H-1,2,3-triazol-4-yl)methyl)piperazin-1-yl)-6-fluoro-4-oxo-1,4-dihydroquinoline-3-carboxylic acid] | 177 to 179 °C | – | – | – | – | – | – | –
4 | O=C(/C=C/c1ccc(Cl)cc1)c1ccc(-n2cc(CN3CCN(c4cc5c(cc4F)c(=O)c(C(=O)O)cn5C4CC4)CC3)nn2)cc1 [Compound 4c, (E)-7-(4-((1-(4-(3-(4-chlorophenyl)acryloyl)phenyl)-1H-1,2,3-triazol-4-yl)methyl)piperazin-1-yl)-1-cyclopropyl-6-fluoro-4-oxo-1,4-dihydroquinoline-3-carboxylic acid] | 257 to 259 °C | – | – | – | – | – | – | –
5 | O=C(/C=C/c1cccc(Cl)c1)c1ccc(-n2cc(CN3CCN(c4cc5c(cc4F)c(=O)c(C(=O)O)cn5C4CC4)CC3)nn2)cc1 [Compound 4b, (E)-7-(4-((1–(4-(3-(3-chlorophenyl)acryloyl)phenyl)-1H-1,2,3-triazol-4-yl)methyl)piperazin-1-yl)-1-cyclopropyl-6-fluoro-4-oxo-1,4-dihydroquinoline-3-carboxylic acid] | – | induced G2/M phase cell cycle arrest in a concentration-dependent manner | increased | significant tubulin polymerisation inhibition | increases in the γH2AX protein expression | induced γH2AX foci formation | – | –
6 | COc1cc(/C=C/C(=O)c2ccc(-n3cc(CN4CCN(c5cc6c(cc5F)c(=O)c(C(=O)O)cn6C5CC5)CC4)nn3)cc2)cc(OC)c1OC [Compound 4j, (E)-1-cyclopropyl-6-fluoro-4-oxo-7–(4-((1–(4-(3-(3,4,5-trimethoxyphenyl)acryloyl)phenyl)-1H-1,2,3-triazol-4-yl)methyl)piperazin-1-yl)-1,4-dihydroquinoline-3-carboxylic acid] | – | induced G2/M phase cell cycle arrest in a concentration-dependent manner | increased | significant tubulin polymerisation inhibition | increases in the γH2AX protein expression | induced γH2AX foci formation | stronger inhibitory activity than 4b, 4i, and ETO | less potent Top-1 inhibitor
7 | O=C(/C=C/c1ccc(F)cc1)c1ccc(-n2cc(CN3CCN(c4cc5c(cc4F)c(=O)c(C(=O)O)cn5C4CC4)CC3)nn2)cc1 [Compound 4e, (E)-1-cyclopropyl-6-fluoro-7–(4-((1–(4-(3-(4-fluorophenyl)acryloyl)phenyl)-1H-1,2,3-triazol-4-yl)methyl)piperazin-1-yl)-4-oxo-1,4-dihydroquinoline-3-carboxylic acid] | – | induced G2/M phase cell cycle arrest in a concentration-dependent manner | increased | significant tubulin polymerisation inhibition | increases in the γH2AX protein expression | induced γH2AX foci formation | stronger inhibitory activity than 4b, 4i, and ETO | comparable to camptothecin
8 | COc1ccc(/C=C/C(=O)c2ccc(-n3cc(CN4CCN(c5cc6c(cc5F)c(=O)c(C(=O)O)cn6C5CC5)CC4)nn3)cc2)cc1 [Compound 4g, (E)-1-Cyclopropyl-6-fluoro-7-(4-((1-(4-(3-(4-methoxyphenyl)acryloyl)phenyl)-1H-1,2,3-triazol-4-yl)methyl)piperazin-1-yl)-4-oxo-1,4-dihydroquinoline-3-carboxylic acid] | 254 to 257 °C | – | – | – | – | – | – | –
9 | COc1ccc(/C=C/C(=O)c2ccc(-n3cc(CN4CCN(c5cc6c(cc5F)c(=O)c(C(=O)O)cn6C5CC5)CC4)nn3)cc2)cc1OC [Compound 4i, (E)-1-cyclopropyl-7-(4-((1-(4-(3–(3,4-dimethoxyphenyl)acryloyl)phenyl)-1H-1,2,3-triazol-4-yl)methyl)piperazin-1-yl)-6-fluoro-4-oxo-1,4-dihydroquinoline-3-carboxylic acid] | – | induced G2/M phase cell cycle arrest in a concentration-dependent manner | increased | significant tubulin polymerisation inhibition | increases in the γH2AX protein expression | induced γH2AX foci formation | – | –
